The values that follow come from patent publication US12617770B2, “IRAK inhibitor and preparation method therefor and use thereof” (WUHAN CREATERNA SCIENCE AND TECHNOLOGY CO., LTD., priority 2019, dated 2026).

In one series the target is T1, human IRAK1 (Homo sapiens, UniProt P51617).
T1 construct: purchased Cama (so in the source)
The series is described as follows: IRAK1 MSA (Mobility-Shift Assay) at Km concentration of ATP. Format: biochemical. Particulars: for IC50: read-out: IRAKI IC50; for IRAKI IC50 (nM)/ IRAK4 IC50 (nM): selectivity ratio IRAK1 to IRAK4. The protocol:
This assay evaluated the inhibitory effect of the compounds on human IRAK1 activity with the same materials as in Test Example 1.
A recombinant fusion protein of N-terminal GST (glutathione-S-transferase) and human IRAK1 was used as enzyme (GST-IRAK1, kinase IRAK1, Cama) at a final concentration of 3 nM: ATP (Sigma) was at a final concentration of 97 μM; the substrates used for the kinase reaction were 5-FAM (5-carboxyfluorescein)-labeled polypeptide (5-FAM-[…]-COOH) and substrate peptide FAM-P8 (GL Biochem) at final concentrations of 5 μM.
(§1) In this assay, 500 μM stock solutions of the compounds were prepared in 100% DMSO, and serially 4-fold diluted to the 10th concentration gradient with 100% DMSO, followed by a 10-fold dilution in the compound buffer (50 mM HEPES, pH 7.5, 0.00015% Brij-35) to give intermediate dilutions of the compounds at a final concentration of 10 μM−0.04 nM containing 10% DMSO. 5 μL of the intermediate dilution was transferred into a black 384-well plate.
IRAK1 was diluted to 7.5 nM in the kinase buffer (50 mM HEPES, pH 7.5, 0.00015% Brij-35, 2 mM DTT). 10 μL of the IRAK1 dilution was transferred to the 384-well plate and co-incubated with the compound for 10-15 min.
The substrate and ATP were diluted to 12.5 μM and 242.5 μM with reaction buffer (50 mM HEPES, pH 7.5, 0.00015% Brij-35, 10 mM MgCl2), respectively. 10 μL of the dilution was transferred to a 384-well plate and incubated at 28° C. for 1 h. The reaction was terminated by adding 25 μL of 50 mM EDTA to the 384-well plate.
The inhibition of IRAK1 by the compounds was calculated by measuring the rate of phosphorylated substrate using a Caliper EZ Reader (PerkinElmer) and the IC50 was calculated by XL-fit software.

The target in another series is T2, human IRAK4 (Homo sapiens, UniProt Q9NWZ3).
T2 construct: purchased Cama (so in the source)
T2 sequence (Q9NWZ3 1-460): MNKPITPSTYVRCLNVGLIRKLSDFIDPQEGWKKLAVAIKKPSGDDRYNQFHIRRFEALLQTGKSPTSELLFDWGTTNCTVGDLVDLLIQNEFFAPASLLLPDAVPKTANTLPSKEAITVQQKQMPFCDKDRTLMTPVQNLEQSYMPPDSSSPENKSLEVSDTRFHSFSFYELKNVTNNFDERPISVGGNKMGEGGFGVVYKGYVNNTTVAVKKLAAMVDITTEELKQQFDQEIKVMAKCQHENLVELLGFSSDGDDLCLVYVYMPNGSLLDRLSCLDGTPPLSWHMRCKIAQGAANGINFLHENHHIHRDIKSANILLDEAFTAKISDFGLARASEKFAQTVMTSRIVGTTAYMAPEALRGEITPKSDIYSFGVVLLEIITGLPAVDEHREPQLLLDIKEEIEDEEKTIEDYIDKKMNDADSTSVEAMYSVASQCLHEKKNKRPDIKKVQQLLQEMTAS
Description: IRAK4 MSA (Mobility-Shift Assay) at Km concentration of ATP. Format: biochemical. Conditions: GST-IRAK4 1 nM, ATP 37 μM (Km); read-out: IC50 for inhibiting human IRAK4 activity. As for the experimental part:
A recombinant fusion protein of N-terminal GST (glutathione-S-transferase) and human IRAK4 was used as enzyme (GST-IRAK4, kinase IRAK4 (Cama, CAT No. 09-145)) at a final concentration of 1 nM; ATP (Sigma. CAT No. A7699-1G) was at a final concentration of 37 μM; • the substrates used for the kinase reaction were 5-FAM (5-carboxyfluorescein)-labeled polypeptide (5-FAM-[…]-COOH) and substrate peptide FAM-P8 (GL Biochem, CAT No. 112396) at final concentrations of 5 μM.
as §1
IRAK4 was diluted to 2.5 nM in the kinase buffer (50 mM HEPES, pH 7.5, 0.00015% Brij-35, 2 mM DTT). 10 μL of the IRAK4 dilution was transferred to the 384-well plate and co-incubated with the compound for 10-15 min.
The substrate and ATP were diluted to 12.5 μM and 92.5 μM with reaction buffer (50 mM HEPES, pH 7.5, 0.00015% Brij-35, 10 mM MgCl2), respectively. 10 μL of the dilution was transferred to a 384-well plate and incubated at 28° C. for 1 h. The reaction was terminated by adding 25 μL of 50 mM EDTA to the 384-well plate.
The inhibition rate of IRAK4 by the compounds was calculated by measuring the rate of phosphorylated substrate using a Caliper EZ Reader (PerkinElmer) and the IC50 was calculated by XL-fit software. […] In particular, some exemplary compound activity values are as follows: […]

Another series concerns the target T3, CYP2C9 (Homo sapiens, UniProt P11712).
T3 construct: co-incubated at 7 concentrations with human liver microsomes and five probe substrates; tissue Corning (USA); host or cells: mixed (pooled) human liver microsomes
The series is described as follows: CYP450 inhibition in human liver microsomes, CYP2C9. Type of series: in vitro ADME. Conditions: pooled (mixed) human liver microsomes, probe diclofenac. The protocol:
(§2) This study was intended to investigate the inhibitory effect of the test compounds on 5 major enzymes in human P450 superfamily, CYP1A2, 2C9, 2C19, 2D6 and 3A4-M. The mixed human liver microsomes used in this assay were purchased from Corning (USA). The test compound (compound 14) was co-incubated at 7 concentrations with human liver microsomes and five probe substrates (phenacetin for CYP1a2, diclofenac for CYP2C9, mephenytoin for CYP2C19, dextromethorphan for CYP2D6, midazolam for CYP3A4-M, mixed). The reaction was initiated by adding coenzyme NADPH, and terminated by adding acetonitrile containing internal standard. After the proteins were precipitated, the supernatant was centrifuged. The characteristic metabolites in the supernatant (acetaminophen for CYP1A2, 4-hydroxydiclofenac for CYP2C9, 4-hydroxymephenytoin for CYP2C19, dextrorphan for CYP2D6, 1-hydroxymidazolam for CYP3A4-M) were analyzed by LC-MS/MS. The influence of the test compounds on production of the characteristic metabolites was finally analyzed on the basis of the data obtained. A selective inhibitor (ketoconazole for CYP3A4-M) may be used as positive control. All samples were tested in duplicate.

A further series has as its target T4, CYP2C19 (Homo sapiens, UniProt P33261).
T4 construct: co-incubated at 7 concentrations with human liver microsomes and five probe substrates; tissue Corning (USA); host or cells: mixed (pooled) human liver microsomes
The series is described as follows: CYP450 inhibition in human liver microsomes, CYP2C19. Type of series: in vitro ADME. Conditions: pooled (mixed) human liver microsomes, probe mephenytoin. As for the experimental part: as §2
For orientation: Microsomes from liver hold many membrane-bound enzymes, among them those of drug oxidation.

Another series has as its target T5, CYP3A4 (Homo sapiens, UniProt P08684).
T5 construct: The test compounds were co-incubated with the human liver microsomes and a probe substrate midazolam (CYP3A4); tissue Corning (USA); host or cells: mixed (pooled) human liver microsomes
Description: CYP450 inhibition in human liver microsomes, CYP3A4-M. Format: in vitro ADME. Conditions: pooled (mixed) human liver microsomes, probe midazolam; human liver microsomes, midazolam; read-out: CYP3A4 IC50. As for the experimental part: as §2

T1 sequence (P51617 whole entry): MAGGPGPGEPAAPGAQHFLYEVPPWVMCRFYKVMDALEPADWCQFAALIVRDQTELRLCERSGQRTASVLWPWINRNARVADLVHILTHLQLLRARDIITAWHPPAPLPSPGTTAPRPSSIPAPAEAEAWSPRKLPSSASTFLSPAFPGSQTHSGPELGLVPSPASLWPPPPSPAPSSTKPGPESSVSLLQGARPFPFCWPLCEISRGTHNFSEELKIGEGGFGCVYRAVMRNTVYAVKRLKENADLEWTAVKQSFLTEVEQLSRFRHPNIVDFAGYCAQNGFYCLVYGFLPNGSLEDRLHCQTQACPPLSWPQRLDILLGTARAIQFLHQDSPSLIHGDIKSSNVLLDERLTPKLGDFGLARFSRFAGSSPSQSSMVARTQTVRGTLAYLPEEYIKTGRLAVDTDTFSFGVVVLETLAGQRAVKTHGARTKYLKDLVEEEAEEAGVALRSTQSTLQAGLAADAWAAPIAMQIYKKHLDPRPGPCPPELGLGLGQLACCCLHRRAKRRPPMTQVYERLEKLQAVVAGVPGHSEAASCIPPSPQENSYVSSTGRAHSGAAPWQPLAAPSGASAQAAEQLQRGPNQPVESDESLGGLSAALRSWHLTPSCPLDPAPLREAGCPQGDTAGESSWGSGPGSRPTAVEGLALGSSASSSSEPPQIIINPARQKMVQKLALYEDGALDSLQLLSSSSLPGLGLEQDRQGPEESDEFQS
T4 sequence (P33261 whole entry): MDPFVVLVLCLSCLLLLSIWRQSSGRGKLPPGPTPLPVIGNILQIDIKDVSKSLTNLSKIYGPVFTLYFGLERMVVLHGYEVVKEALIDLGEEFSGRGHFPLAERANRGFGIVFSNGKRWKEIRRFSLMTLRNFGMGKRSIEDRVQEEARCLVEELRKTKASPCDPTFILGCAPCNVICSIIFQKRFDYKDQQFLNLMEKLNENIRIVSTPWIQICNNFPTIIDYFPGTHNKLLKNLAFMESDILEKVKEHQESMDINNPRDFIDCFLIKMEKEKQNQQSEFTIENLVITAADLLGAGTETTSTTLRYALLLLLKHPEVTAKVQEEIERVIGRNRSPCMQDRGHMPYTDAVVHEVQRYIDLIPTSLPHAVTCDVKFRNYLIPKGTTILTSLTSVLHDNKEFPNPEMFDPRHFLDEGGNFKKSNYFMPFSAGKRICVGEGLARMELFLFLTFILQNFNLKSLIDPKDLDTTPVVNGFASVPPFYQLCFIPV
T5 sequence (P08684 whole entry): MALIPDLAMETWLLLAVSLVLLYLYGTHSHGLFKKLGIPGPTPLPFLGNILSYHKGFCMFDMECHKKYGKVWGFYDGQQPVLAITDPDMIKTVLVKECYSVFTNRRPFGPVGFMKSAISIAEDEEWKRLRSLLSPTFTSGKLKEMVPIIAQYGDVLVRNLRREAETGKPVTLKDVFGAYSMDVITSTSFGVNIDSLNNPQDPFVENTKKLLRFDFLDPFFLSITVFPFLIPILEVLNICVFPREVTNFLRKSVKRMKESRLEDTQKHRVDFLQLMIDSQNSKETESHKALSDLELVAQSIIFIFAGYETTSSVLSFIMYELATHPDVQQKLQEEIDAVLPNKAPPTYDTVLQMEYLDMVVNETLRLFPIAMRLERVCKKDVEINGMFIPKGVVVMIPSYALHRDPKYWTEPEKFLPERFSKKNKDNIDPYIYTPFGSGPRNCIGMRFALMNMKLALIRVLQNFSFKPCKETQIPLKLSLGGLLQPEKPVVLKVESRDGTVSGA
T3 sequence (P11712 whole entry): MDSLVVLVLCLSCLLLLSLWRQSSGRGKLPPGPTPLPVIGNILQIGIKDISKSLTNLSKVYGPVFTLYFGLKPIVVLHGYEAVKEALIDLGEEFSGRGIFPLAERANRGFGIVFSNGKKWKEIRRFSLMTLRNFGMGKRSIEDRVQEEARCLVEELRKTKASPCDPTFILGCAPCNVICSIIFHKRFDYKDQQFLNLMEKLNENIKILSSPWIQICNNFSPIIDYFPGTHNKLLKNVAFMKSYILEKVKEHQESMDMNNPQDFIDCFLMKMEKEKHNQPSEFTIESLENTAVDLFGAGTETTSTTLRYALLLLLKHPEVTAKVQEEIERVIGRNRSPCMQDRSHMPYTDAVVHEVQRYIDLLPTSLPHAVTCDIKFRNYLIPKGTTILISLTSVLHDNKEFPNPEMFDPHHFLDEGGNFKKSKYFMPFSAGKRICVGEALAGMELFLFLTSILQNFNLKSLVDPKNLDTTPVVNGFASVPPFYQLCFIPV

By IC50 is commonly meant the concentration needed to halve the response being measured. Take `COc1cc2nn([C@H]3CC[C@](C)(O)CC3)cc2cc1NC(=O)c1cccc(C)[n+]1[O-]` [Compound 001, 2-((2-((1r,4r)-4-hydroxy-4-methylcyclohexyl)-6-methoxy-2H-indazol-5-yl)carbamoyl)-6-methylpyridine 1-oxide]: the IC50 on human IRAK1 was 4.04 µM; on human IRAK4 it was 0.006 µM; against CYP2C9, > 30 µM; against CYP2C19, > 30 µM; at CYP3A4 it was > 30 µM. Also, on human IRAK1, the “IRAKI IC50 (nM)/ IRAK4 IC50 (nM)” value was 673.2.
Regarding `COc1cc2nn(CCC(C)(C)O)cc2cc1NC(=O)c1cccc(C)[n+]1[O-]` [Compound 163, 2-((2-(3-hydroxy-3-methylbutyl)-6-methoxy-2H-indazol-5-yl)carbamoyl)-6-methylpyridine 1-oxide], the half-inhibitory concentration (IC50) at human IRAK1 was 2.99 µM; on human IRAK4, 0.023 µM; on CYP2C9 it was > 30 µM; against CYP2C19, > 30 µM; at CYP3A4, > 30 µM. In addition, the “IRAKI IC50 (nM)/ IRAK4 IC50 (nM)” value on human IRAK1 is reported as 130.1.
